# Legend:
# [1] = tested on: Staphylococcus aureus 6538; test: MIC in gelose culture medium (relative to reference penicillin); format: cell-based; conditions: S.AUREUS 6538
# Protocol: This is a Gram-positive coccus which is particularly sensitive to penicillins and which has a low resistance mechanism. This strain of Staphylococcus is, therefore, representative of a maximum sensitivity of the species.
# (§1) For a certain number of compounds of formula (XV), the minimum inhibitory concentration (MIC) was determined as follows:
# (§2) The products to be tested are introduced in increasing concentrations into a gelose culture medium in Petri dishes. A multiple inoculator is used to deposit simultaneously drops (10 microliters) of inoculum (suspension of approximately 10^5 bacteria per ml) onto the surface of the medium. After incubation at 37° C for 24 hours, the growth of the bacteria is observed. By definition, the MIC is expressed by the minimum concentration of tested compound which inhibits the multiplication of the bacteia. In the following results, however, the MIC is given as being equal to 1 for the reference compounds and the activity figures given for the tested compounds of formula (XV) are, therefore, relative values. This presentation of the results is more correct and the most reproducible because, for one and the same bacterial strain, different MIC values can be observed if they are measured at different times. This is bound up with the "seasonal" variations in the strains and their nutrient medium.
# [2] = tested on: Staphylococcus aureus 52149; test: as above; format: cell-based; conditions: S.AUREUS 52149
# Protocol: This is a Gram-positive coccus, the intrinsic sensitivity of the receptor of which is equivalent to that of the preceding strain but which produces a beta-lactamase which is typical of the species and which renders it resistant to all the penicillins which are sensitive to hydrolysis.
# as §1, §2
# Escherichia coli B = test: as above; format: cell-based; conditions: E.COLI B
# Protocol: This is a well-known collection strain of Escherichia coli which produces very little beta-lactamase (of type I) and is, therefore, very sensitive to penicillins. As regards the classification of the beta-lactamases, use is here made of that proposed by M. H. RICHMOND and R. B. SYKES (see Advances in Microbial Physiology,9,(1973),pp.43 and 45).
# as §1, §2
# [3] = tested on: Escherichia coli B-Ampi R; test: as above; format: cell-based; conditions: E.COLI B AMPI-R
# Protocol: This is a mutant of the preceding strain which we have produced.
# as §1, §2
# Escherichia coli K 12-44 = test: as above; format: cell-based; conditions: E.COLI K 12-44; reference ampicillin = 1
# Protocol: This is a mutant of Escherichia coli K 12, the typical reference parent strain of the species. This mutant is not a producer of beta-lactamase.
# as §1, §2
# [4] = tested on: Escherichia coli K 12-44 S; test: as above; format: cell-based; conditions: E.COLI K 12-44S; reference ampicillin = 1
# Protocol: It is very sensitive to penicillins due to hyperpermeability.
# as §1, §2
# [5] = tested on: Escherichia coli K 12-44 R; test: as above; format: cell-based; conditions: E.COLI K 12-44R; reference ampicillin = 1
# Protocol: This strain is a pleiotropic mutant of Escherichia coli K 12-44, which we have produced. It is not a producer of beta-lactamase but, nevertheless, it has a resistance to penicillins, probably as a result of the modification of the permeability of the cell membranes.
# as §1, §2
# beta-lactamase TEM [6] = molecular target: beta-lactamase TEM (Escherichia coli, UniProt P62593); test: Hydrolysis kinetics: residual activity in the presence of beta-lactamase; format: biochemical, Gram-negative bacteria
# beta-lactamase P 99 = beta-lactamase P 99 (Enterobacter cloacae, UniProt P05364); test: as above; format: biochemical, Gram-negative bacteria
# beta-lactamase TEM [7] = test: Rate of hydrolysis by beta-lactamase measured as NaOH consumed per minute; format: biochemical
# From the text: This method allows the dosage of the penicilloic acid resulting from the hydrolysis of the beta-lactam function by the lytic enzyme. The results of these kinetics, as given in the following Table, clearly show the superiority of compounds E and H as compared with pencillin G.
# [8] = reference 6-amino-penicillanic acid = 1
# Chain of beta-lactamase P 99 (P05364 21-381): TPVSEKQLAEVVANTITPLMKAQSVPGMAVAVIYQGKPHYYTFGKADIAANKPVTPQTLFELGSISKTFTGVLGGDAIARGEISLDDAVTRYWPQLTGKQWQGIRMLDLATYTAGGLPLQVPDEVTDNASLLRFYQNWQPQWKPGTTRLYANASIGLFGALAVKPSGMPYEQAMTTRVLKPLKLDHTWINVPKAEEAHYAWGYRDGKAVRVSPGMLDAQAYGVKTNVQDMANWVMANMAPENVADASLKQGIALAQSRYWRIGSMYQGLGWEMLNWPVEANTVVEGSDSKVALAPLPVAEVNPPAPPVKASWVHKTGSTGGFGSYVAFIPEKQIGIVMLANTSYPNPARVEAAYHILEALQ
# Chain of beta-lactamase TEM (Escherichia coli, UniProt P62593) (P62593 24-286 limits assumed): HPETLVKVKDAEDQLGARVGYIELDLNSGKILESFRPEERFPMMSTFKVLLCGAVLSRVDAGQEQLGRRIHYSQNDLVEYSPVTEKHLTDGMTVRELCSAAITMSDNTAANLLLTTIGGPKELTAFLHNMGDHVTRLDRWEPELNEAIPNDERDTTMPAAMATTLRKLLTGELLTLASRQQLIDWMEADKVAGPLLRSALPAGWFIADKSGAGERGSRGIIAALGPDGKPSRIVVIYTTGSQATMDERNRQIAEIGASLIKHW
structure (smiles),measurement,setting,value
"O=C(Cc1ccccc1)N[C@@H]1C(=O)N2[C@@H]1SC1(CCOCC1)[C@@H]2C(=O)O (relative stereo) [Compound A, 6-(2""-phenylacetamido)-2',3',5',6'-tetrahydro-spiro[penam-2,4'-[4H]pyran]-3-carboxylic acid]",MIC relative to reference compound (=1),[1]; reference penicillin G = 1,2
same,MIC relative to reference compound (=1),[2]; reference penicillin G = 1,2
same,MIC relative to reference compound (=1),Escherichia coli B; reference penicillin G = 1,4
same,MIC relative to reference compound (=1),[3]; reference penicillin G = 1,2
"COc1cccc(OC)c1C(=O)N[C@@H]1C(=O)N2[C@@H]1SC1(CCSCC1)[C@@H]2C(=O)O (relative stereo) [Compound G, 6-(2"",6""-dimethoxybenzamido)-2',3',5',6'-tetrahydro-spiro[penam-2,4'-[4H]thiopyran]-3-carboxylic acid]",MIC relative to reference compound (=1),[2]; reference methicillin = 1,0.5
"NC(C(=O)NC1C(=O)N2C1SC1(CCSCC1)C2C(=O)O)c1ccccc1 (stereo not drawn) [Compound F, 6-(2""-amino-2""-phenylacetamido)-2',3',5',6'-tetrahydro-spiro[penam-2,4'-[4H]thiopyran]-3-carboxylic acid]",MIC relative to reference compound (=1),[1]; reference ampicillin = 1,2
same,MIC relative to reference compound (=1),Escherichia coli B; reference ampicillin = 1,7
same,MIC relative to reference compound (=1),[3]; reference ampicillin = 1,3
same,MIC relative to reference compound (=1),Escherichia coli K 12-44,10
same,MIC relative to reference compound (=1),[4],15
same,MIC relative to reference compound (=1),[5],> 1.5
same,Resistance to beta-lactamase as compared with ampicillin (in words),beta-lactamase TEM [6],increased resistance
same,Resistance to beta-lactamase as compared with ampicillin (in words),beta-lactamase P 99,increased resistance
"CC1(C)S[C@@H]2[C@H](NC(=O)[C@H](N)c3ccccc3)C(=O)N2[C@H]1C(=O)O [Ampicillin, ampicillin, reference compound]",MIC relative to reference compound (=1),[1]; reference ampicillin = 1,1
same,MIC relative to reference compound (=1),Escherichia coli B; reference ampicillin = 1,1
same,MIC relative to reference compound (=1),[3]; reference ampicillin = 1,1
same,MIC relative to reference compound (=1),Escherichia coli K 12-44,1
same,MIC relative to reference compound (=1),[4],1
same,MIC relative to reference compound (=1),[5],1
same,Residual activity in the presence of beta-lactamase,beta-lactamase TEM [6]; incubation time 0 minutes,500 µmol
same,Residual activity in the presence of beta-lactamase,beta-lactamase TEM [6]; incubation time 6 minutes,< 50 µmol
same,Residual activity in the presence of beta-lactamase,"beta-lactamase TEM [6]; incubation time 6 minutes, listed as ampicillin",no more detectable
same,Residual activity in the presence of beta-lactamase,beta-lactamase TEM [6]; incubation time 12 minutes,< 50 µmol
same,Residual activity in the presence of beta-lactamase,beta-lactamase TEM [6]; incubation time 18 minutes,< 50 µmol
same,Residual activity in the presence of beta-lactamase,beta-lactamase P 99; incubation time 0 minutes,500 µmol
same,Residual activity in the presence of beta-lactamase,beta-lactamase P 99; incubation time 3 minutes,262 µmol
same,Residual activity in the presence of beta-lactamase,beta-lactamase P 99; incubation time 6 minutes,138 µmol
same,Residual activity in the presence of beta-lactamase,beta-lactamase P 99; incubation time 9 minutes,< 50 µmol
same,Residual activity in the presence of beta-lactamase,"beta-lactamase P 99; incubation time 9 minutes, listed as ampicillin",no more detectable
same,Residual activity in the presence of beta-lactamase,beta-lactamase P 99; incubation time 12 minutes,< 50 µmol
same,Residual activity in the presence of beta-lactamase,beta-lactamase P 99; incubation time 20 minutes,< 50 µmol
"Cc1onc(-c2ccccc2)c1C(=O)N[C@@H]1C(=O)N2[C@@H]1SC1(CCOCC1)[C@@H]2C(=O)O (relative stereo) [Compound C, 6-(5""-methyl-3""-phenyl-4""-isoxazolecarboxamido)-2',3',5',6'-tetrahydro-spiro[penam-2,4'-[4H]pyran]-3-carboxylic acid]",MIC relative to reference compound (=1),[1]; reference oxacillin = 1,2
same,MIC relative to reference compound (=1),[2]; reference oxacillin = 1,1
"N[C@@H](C(=O)NC1C(=O)N2C1SC1(CCOCC1)C2C(=O)O)c1ccccc1 (single isomer, unassigned) [Compound B, 6-(2""-amino-2""-phenylacetamido)-2',3',5',6'-tetrahydro-spiro[penam-2,4'-[4H]pyran]-3-carboxylic acid]",MIC relative to reference compound (=1),Escherichia coli B; reference ampicillin = 1,3.5
same,MIC relative to reference compound (=1),[3]; reference ampicillin = 1,1
same,MIC relative to reference compound (=1),Escherichia coli K 12-44,3.5
same,MIC relative to reference compound (=1),[5],1.5
same,Remaining activity as percentage of initial,beta-lactamase TEM [6]; after incubation for 6 minutes,87%
same,Residual activity in the presence of beta-lactamase,beta-lactamase TEM [6]; incubation time 0 minutes,500 µmol
same,Residual activity in the presence of beta-lactamase,beta-lactamase TEM [6]; incubation time 2 minutes,469 µmol
same,Residual activity in the presence of beta-lactamase,beta-lactamase TEM [6]; incubation time 4 minutes,453 µmol
same,Residual activity in the presence of beta-lactamase,beta-lactamase TEM [6]; incubation time 6 minutes,438 µmol
same,Residual activity in the presence of beta-lactamase,beta-lactamase TEM [6]; incubation time 12 minutes,334 µmol
same,Residual activity in the presence of beta-lactamase,beta-lactamase TEM [6]; incubation time 18 minutes,225 µmol
same,Remaining activity as percentage of initial,beta-lactamase P 99; after incubation for 9 minutes,67%
same,Residual activity in the presence of beta-lactamase,beta-lactamase P 99; incubation time 0 minutes,500 µmol
same,Residual activity in the presence of beta-lactamase,beta-lactamase P 99; incubation time 3 minutes,458 µmol
same,Residual activity in the presence of beta-lactamase,beta-lactamase P 99; incubation time 6 minutes,422 µmol
same,Residual activity in the presence of beta-lactamase,beta-lactamase P 99; incubation time 9 minutes,334 µmol
same,Residual activity in the presence of beta-lactamase,beta-lactamase P 99; incubation time 12 minutes,312 µmol
same,Residual activity in the presence of beta-lactamase,beta-lactamase P 99; incubation time 20 minutes,300 µmol
"CC1(C)S[C@@H]2[C@H](NC(=O)Cc3ccccc3)C(=O)N2[C@H]1C(=O)O [Penicillin G, penicillin G, reference compound]",MIC relative to reference compound (=1),[1]; reference penicillin G = 1,1
same,MIC relative to reference compound (=1),[2]; reference penicillin G = 1,1
same,Rate of hydrolysis: microliters 0.005 N NaOH consumed per minute,beta-lactamase TEM [7],3.83 microliters 0.005 N NaOH per m
"O=C(Cc1ccccc1)N[C@@H]1C(=O)N2[C@@H]1SC1(CCSCC1)[C@@H]2C(=O)O (relative stereo) [Compound E, 6-(2""-phenylacetamido)-2',3',5',6'-tetrahydro-spiro[penam-2,4'-[4H]thiopyran]-3-carboxylic acid]",MIC relative to reference compound (=1),[1]; reference penicillin G = 1,10
same,MIC relative to reference compound (=1),[2]; reference penicillin G = 1,1
same,MIC relative to reference compound (=1),Escherichia coli B; reference penicillin G = 1,5
same,MIC relative to reference compound (=1),[3]; reference penicillin G = 1,> 2
same,Rate of hydrolysis: microliters 0.005 N NaOH consumed per minute,beta-lactamase TEM [7],0.64 microliters 0.005 N NaOH per m
"COc1cccc(OC)c1C(=O)N[C@@H]1C(=O)N2[C@@H]1SC(C)(C)[C@@H]2C(=O)O [Methicillin, methicillin, reference compound]",MIC relative to reference compound (=1),[2]; reference methicillin = 1,1
"NC(C(=O)NC1C(=O)N2C1SC1(CC[S+]([O-])CC1)C2C(=O)O)c1ccccc1 (stereo not drawn) [Compound J, 6-(2""-amino-2""-phenylacetamido)-2',3',5',6'-tetrahydro-spiro[penam-2,4'-[4H]thiopyran]-3-carboxylic acid 1'-oxide]",MIC relative to reference compound (=1),[1]; reference ampicillin = 1,2
same,MIC relative to reference compound (=1),Escherichia coli B; reference ampicillin = 1,1
same,MIC relative to reference compound (=1),[3]; reference ampicillin = 1,2
same,MIC relative to reference compound (=1),Escherichia coli K 12-44,3
same,MIC relative to reference compound (=1),[4],3
same,MIC relative to reference compound (=1),[5],2
same,Resistance to beta-lactamase as compared with ampicillin (in words),beta-lactamase TEM [6],No change in behavior
same,Resistance to beta-lactamase as compared with ampicillin (in words),beta-lactamase P 99,No change in behavior
"CC1(C)S[C@@H]2C(N)C(=O)N2[C@H]1C(=O)O (stereo partly drawn) [Penicillanic acid, 6-amino-penicillanic acid, reference compound]",MIC relative to reference compound (=1),[1]; [8],1
same,MIC relative to reference compound (=1),[2]; [8],1
same,MIC relative to reference compound (=1),Escherichia coli B; [8],1
same,MIC relative to reference compound (=1),[3]; [8],1
"O=C(Cc1ccccc1)NC1C(=O)N2C1SC1(CC[S+]([O-])CC1)C2C(=O)O (stereo not drawn) [Compound H, 6-(2""-phenylacetamido)-2',3',5',6'-tetrahydro-spiro[penam-2,4'-[4H]thiopyran]-3-carboxylic acid 1'-oxide]",MIC relative to reference compound (=1),[1]; reference penicillin G = 1,1
same,MIC relative to reference compound (=1),[2]; reference penicillin G = 1,1
same,MIC relative to reference compound (=1),Escherichia coli B; reference penicillin G = 1,1
same,Rate of hydrolysis: microliters 0.005 N NaOH consumed per minute,beta-lactamase TEM [7],0.50 microliters 0.005 N NaOH per m
"Cc1onc(-c2ccccc2)c1C(=O)N[C@@H]1C(=O)N2[C@@H]1SC(C)(C)[C@@H]2C(=O)O [Oxacillin, oxacillin, reference compound]",MIC relative to reference compound (=1),[1]; reference oxacillin = 1,1
same,MIC relative to reference compound (=1),[2]; reference oxacillin = 1,1
